Laboratory results: US20060189686A1, “Use of a combination of substances to prevent biofouling organisms” (priority 2005, published 2006)

Experiments:
barnacle cyprid larvae = experiment: Settling experiments with barnacle cyprid larvae (Example 1); assay type: in vivo; conditions: for Dead (%) / Free swimming (%) / Settled (%): counted after one week
Experimental: Barnacle cyprid larvae were incubated in filtered sea water with and without the tested substance.
(§1) Settling experiments were performed in order to evaluate the substances effect on settling rate of cyprid larvae. The barnacle cyprid larvae are reared in the laboratory. Approximately 20 cyprids were incubated in seawater in plastic hydrophobic Petri-dishes. Substances subjected for testing were added in different concentration and compared with controls. After one week the amount of settled, frees-swimming and dead larvae in the Petri dishes were counted.

algae = conditions: target protein lacking in algae; reference (6); cited from earlier work
Ulva = experiment: Algae spore germination test, Ulva; assay type: in vivo; conditions: single substance
Experimental: The efficacy of algicides is usually tested by a spore germination test. Algae are collected from the field and grown in the laboratory. […] The water with test compound is then removed and culture medium is added. The spores are left to germinate under fluorescent lamps (50 μMm-2s-1 (PAR)), 16 h light, 8 h darkness, for 7 days in a culture medium, which was changed once a day. […]

Enteromorpha = experiment: Algae spore germination test, Enteromorpha; assay type: in vivo; conditions: single substance
Experimental: The efficacy of algicides is usually tested by a spore germination test. Algae are collected from the field and grown in the laboratory. After induced sporulation the spores are added to test vials, with the test compound dissolved in pasteurized deep sea water, where they are allowed to settle in darkness for a couple of hours (2-3 h) to give an even distribution of settled spores in the vials. The water with test compound is then removed and culture medium is added. The spores are left to germinate under fluorescent lamps (50 μMm-2s-1 (PAR)), 16 h light, 8 h darkness, for 7 days in a culture medium, which was changed once a day.
(§2) Catemine 3 is combined with an effective anti-algae compound according to the invention, such as dichlofluanid (table 3), SeaNine™ (table 4), Irgarol™ (table 5) and Diuron™ (table 6). All the different brands are tested in combination with Catemine 3 for efficacy against both barnacles and algae with the two compounds together or separately. The assays that are be used are the cyprid settling rate assay and the algae germination test.

Barnacle = experiment: Cyprid settling rate assay, single compounds and combinations (Example 2); assay type: in vivo; conditions: single substance
Experimental: as §1, §2

| Structure (SMILES) | Dead (%) (barnacle cyprid larvae; 100 pM in seawater) | Free swimming (%) (barnacle cyprid larvae; 100 pM in seawater) | Settled (%) (barnacle cyprid larvae; 100 pM in seawater) | Dead (%) (barnacle cyprid larvae; 1 nM in seawater) | Free swimming (%) (barnacle cyprid larvae; 1 nM in seawater) | Settled (%) (barnacle cyprid larvae; 1 nM in seawater) | Dead (%) (barnacle cyprid larvae; 10 nM in seawater) | Free swimming (%) (barnacle cyprid larvae; 10 nM in seawater) | Settled (%) (barnacle cyprid larvae; 10 nM in seawater) | Dead (%) (barnacle cyprid larvae; 100 nM in seawater) | Free swimming (%) (barnacle cyprid larvae; 100 nM in seawater) | Settled (%) (barnacle cyprid larvae; 100 nM in seawater) | Dead (%) (barnacle cyprid larvae; 1 μM in seawater) | Free swimming (%) (barnacle cyprid larvae; 1 μM in seawater) | Settled (%) (barnacle cyprid larvae; 1 μM in seawater) | Ulva biofouling (% survival) (Ulva; 0.1 nM) [%] | Barnacle biofouling (% settlement) (Barnacle; 0.1 nM) [%] | Barnacle biofouling (% settlement) (Barnacle; 1 nM) [%] | Barnacle biofouling (% settlement) (Barnacle; 10 nM) [%] | Barnacle biofouling (% settlement) (Barnacle; 100 nM) [%] | other results |
| --- | --- | --- | --- | --- | --- | --- | --- | --- | --- | --- | --- | --- | --- | --- | --- | --- | --- | --- | --- | --- | --- |
| Cc1cccc(C(C)c2c[nH]cn2)c1C (racemic) [Catemine 1, (+/−)-4-[1-(2,3-dimethylphenyl)ethyl]-1H-imidazole] | 0 | 48 | 52 | 0 | 98 | 2 | 0 | 100 | 0 | 0 | 100 | 0 | 0 | 100 | 0 | – | – | – | – | – | Effect on algal growth (algae): no effect of algal growth |
| NC1=N[C@]2(CCc3cccc(Cl)c3C2)CO1 [Catemine 3, (S)-spiro[(1-oxa-2-amino-3-azacyclopent-2-ene)-4,29-(89-chloro-19,29,39,49 tetrahydronaphthalene)]] | 5 | 93 | 2 | 3 | 97 | 0 | 0 | 95 | 3 | 0 | 100 | 0 | 0 | 100 | 0 | 100 | 10 | 0 | 0 | 0 | Ulva biofouling (% survival) (Ulva; 1 nM): 100%; Ulva biofouling (% survival) (Ulva; 10 nM): 100%; Ulva biofouling (% survival) (Ulva; 100 nM): 100%; Enteromorpha biofouling (% survival) (Enteromorpha; 0.1 nM): 100%; Enteromorpha biofouling (% survival) (Enteromorpha; 1 nM): 100%; Enteromorpha biofouling (% survival) (Enteromorpha; 10 nM): 100%; Enteromorpha biofouling (% survival) (Enteromorpha; 100 nM): 100%; Dead (%) (barnacle cyprid larvae; 10 pM in seawater): 0%; Free swimming (%) (barnacle cyprid larvae; 10 pM in seawater): 96%; Settled (%) (barnacle cyprid larvae; 10 pM in seawater): 4%; Dead (%) (barnacle cyprid larvae; 10 μM in seawater): 2%; Free swimming (%) (barnacle cyprid larvae; 10 μM in seawater): 98%; Settled (%) (barnacle cyprid larvae; 10 μM in seawater): 0%; Dead (%) (barnacle cyprid larvae; 100 μM in seawater): 100%; Free swimming (%) (barnacle cyprid larvae; 100 μM in seawater): 0%; Settled (%) (barnacle cyprid larvae; 100 μM in seawater): 0%; Decrease in concentration needed for settlement inhibition compared to Catemine 1 (barnacle cyprid larvae; compared to Catemine 1): 100-fold decrease in concentration needed for settlement inhibition.; Potency comparison of antisettling activity (barnacle cyprid larvae; comparison of Tables 1 and 2): more potent than Catemine 1 |
| CN(C)S(=O)(=O)N(SC(F)(Cl)Cl)c1ccccc1 [Dichlofluanid, N′-dimethyl-N-phenylsulphamide] | – | – | – | – | – | – | – | – | – | – | – | – | – | – | – | – | – | – | – | – | Ulva biofouling (% survival) (Ulva; 0.1 μg/ml): 100%; Ulva biofouling (% survival) (Ulva; 1 μg/ml): 90%; Ulva biofouling (% survival) (Ulva; 10 μg/ml): 10%; Ulva biofouling (% survival) (Ulva; 100 μg/ml): 0%; Barnacle biofouling (% settlement) (Barnacle; 0.1 μg/ml): 100%; Barnacle biofouling (% settlement) (Barnacle; 1 μg/ml): 50%; Barnacle biofouling (% settlement) (Barnacle; 10 μg/ml): 25%; Barnacle biofouling (% settlement) (Barnacle; 100 μg/ml): 0% |
| CN(C)C(=O)Nc1ccc(Cl)c(Cl)c1 [Diuron, 3-(3,4-dichlorophenyl)1,1-dimethylurea] | – | – | – | – | – | – | – | – | – | – | – | – | – | – | – | – | – | – | – | – | Ulva biofouling (% survival) (Ulva; 0.1 μM): 100%; Ulva biofouling (% survival) (Ulva; 1 μM): 90%; Ulva biofouling (% survival) (Ulva; 10 μM): 50%; Ulva biofouling (% survival) (Ulva; 100 μM): 0%; Barnacle biofouling (% settlement) (Barnacle; 0.1 μM): 100%; Barnacle biofouling (% settlement) (Barnacle; 1 μM): 100%; Barnacle biofouling (% settlement) (Barnacle; 10 μM): 100%; Barnacle biofouling (% settlement) (Barnacle; 100 μM): 100% |
| CSc1nc(NC2CC2)nc(NC(C)(C)C)n1 [Irgarol, 2-methylthio-4-tert-butylamino-6-cyclopropylamino-s-triazine] | – | – | – | – | – | – | – | – | – | – | – | – | – | – | – | – | 100 | 100 | 100 | 100 | Enteromorpha biofouling (% survival) (Enteromorpha; 0.1 nM): 100%; Enteromorpha biofouling (% survival) (Enteromorpha; 1 nM): 100%; Enteromorpha biofouling (% survival) (Enteromorpha; 10 nM): 50%; Enteromorpha biofouling (% survival) (Enteromorpha; 100 nM): 0% |
| CCCCCCCCn1sc(Cl)c(Cl)c1=O [SeaNine, 4,5-dichloro-2-n-octyl-3(2H)-isothiazolone] | – | – | – | – | – | – | – | – | – | – | – | – | – | – | – | 100 | 100 | 50 | 10 | 0 | Ulva biofouling (% survival) (Ulva; 1 nM): 50%; Ulva biofouling (% survival) (Ulva; 10 nM): 10%; Ulva biofouling (% survival) (Ulva; 100 nM): 0% |
